Consider 1 molecule from ChEMBL document CHEMBL1134723, “Synthesis and evaluation of the sunflower derived trypsin inhibitor as a potent inhibitor of the type II transmembrane serine protease, matriptase” (Bioorg Med Chem Lett, 2001).

This assay deals with Prothrombin (Bos taurus, UniProt P00735). The assay can be described thus: Compound was tested for inhibition of bovine Thrombin.

In the case of `CC[C@H](C)[C@@H]1NC(=O)[C@@H]2CCCN2C(=O)[C@@H]2CCCN2C(=O)[C@H]([C@@H](C)CC)NC(=O)[C@H](CO)NC(=O)[C@H](CCCCN)NC(=O)[C@H]([C@@H](C)O)NC(=O)[C@@H]2CSSC[C@H](NC1=O)C(=O)N[C@@H](Cc1ccccc1)C(=O)N1CCC[C@@H]1C(=O)N[C@@H](CC(=O)O)C(=O)NCC(=O)N[C@@H](CCCN=C(N)N)C(=O)N2`, the Ki was 5.05 µM. That is a single-digit micromolar value.

One may read the Ki as a measure of affinity in units of concentration, obtained from inhibition or displacement. A high value points to a looser hold on the target.
